The values that follow come from patent US20240299559A1, “COMPOUNDS THAT MEDIATE PROTEIN DEGRADATION AND METHODS OF USE THEREOF” (Monte Rosa Therapeutics, Inc., priority 2021, published 2024).

One experiment addresses T1, CDK2 (Homo sapiens, UniProt P24941).
T1 construct: HEK293 clonal lines with CRISPR KI HiBiT tag on CDK2 proteins; host or cells: HEK293 clonal line with CRISPR knock-in HiBiT on CDK2, stably expressing LgBiT
Briefly: CDK2 HiBiT assay (degradation, Dmax). Format: cell-based. Conditions: HEK293 clonal lines with CRISPR KI HiBiT tag on CDK2, stably expressing LgBiT; 24 hours incubation. Here is the method: HEK293 clonal lines with CRISPR KI HiBiT tag on CDK2 proteins and stably expressing LgBiT protein were obtained from Promega (Madison, WI). Cells were plated at 5000 cells per well using Multiflo (BioTek) in 384-well white solid bottom plates (Corning, 3570BC) in 25 ul volume in DMEM media (DMEM, high glucose, HEPES, no phenol red (ThermoFisher Scientific, 21063029)) containing 10% FBS (Corning, 35-075-CV), 1% Penicillin/Streptomycin (ThermoFisher Scientific, 15140-122). Cells were incubated for 16 hours at 37° C., 5% CO2. 75 nL of a compound at 30 μM were dosed into the plate using an Echo® 650 liquid handler (Labcyte). Cells were incubated at 37° C., 5% CO2 for 24 hours. 5 ul of HiBiT Lysis Reagent (Promega, N3030) is added using Combi Multidrop (ThermoFisher Scientific), plates are incubated for 15′ at 37° C., 5% CO2 and then signal was read on a Pherastar FSX using “LUM plus” optic module.
Analysis was performed in Scinamic (Scinamic, Cambridge, MA). Luminescence response (R) was calculated by the formula: response=100*(S−N)/(P−N) where S is the signal of the well, N and P the mean negative and positive control values respectively of the same plate. The luminescence response was then fitted in Scinamic using a 3-parameter agonist logistic fit (hillslope=1, EC50>0, top/bottom unconstrained).
(With HiBiT, luminescence reflects the tagged protein that the partner subunit can reach.)

Another experiment deals with CRBN-DDB1 (Homo sapiens, UniProt Q96SW2). Kind of experiment: Compound binding to CRBN by HTRF assay. Conditions: CRBN-DDB1 2.5 nM, Cy5-Thalidomide 100 nM probe; Ki from geometric mean of IC50 by Cheng-Prustoff transformation. The method, then:
Compound activity was monitored in a Homogenous Time-Resolved Fluorescence (HTRF) assay using 1-[5-({2-[2-(2-{[2-(2,6-dioxopiperidin-3-yl)-1,3-dioxo-2,3-dihydro-1H-isoindol-4-yl]oxy}acetamido)ethoxy]ethyl}carbamoyl)pentyl]-3,3-dimethyl-2-[(1E,3E)-5-[(2E)-1,3,3-trimethyl-5-sulfo-2,3-dihydro-1H-indol-2-ylidene]penta-1,3-dien-1-yl]-3H-indol-1-ium-5-sulfonate as a fluorescent probe. Biochemical assays were conducted in Greiner white 384 well HiBase plates (Cat. No 784075-25) in 10 μL total volume. A one pot detection solution of CRBN-DDB1 (2.5 nM), Anti-His Terbium Cryptate Gold (1×, PerkinElmer Cat. #: 61HI2TLB), and Cy5-Thalidomide (100 nM, Tenova Cat.: T52461) was prepared in 20 mM HEPES, 20 mM NaCl, 0.2 mM TCEP, 0.2 mM EDTA, and 0.005% Tween20 was dispensed to each assay plate. Compounds were stored in dry, ambient temperatures at 10 mM. A 10-point, 1:3 dilution series was prepared from 10 mM stock concentrations in Echo-compatible LDV plates. 10 nL of each compound dilution series was dispensed into assays wells using an Echo 650 (Labcyte inc. USA). 10 nL of 10 mM Lenalidomide was transferred into the active-control wells for the assay and 10 nL of DMSO was transferred into the neutral-control wells. The assay was then allowed to incubate for 30 min at ambient temperature after transferring compound. Plate measurements were taken on a Pherastar FSX (BMG Labtech, Germany) using the HTRF Red filter (Ex. 337 nm, em1:620 nm, em2:665 nm) (Flashes: 50, Integration time: 60-400 us, Z-height: 10 mm, Ratio-multipler: 10,000). The HTRF signal was then subsequently normalized to the neutral and active controls. Analysis and IC50 values were derived using KNIME analytics (KNIME Zurich) transformation and fitting within Collaborative Drug Discovery (Collaborative Drug Discovery USA). Ki was derived from the geometric mean of the IC50 values using the Cheng-Prustoff transformation.
On the technique in general: Time-resolved FRET reads energy transfer from a long-lived donor to a nearby acceptor.

CRBN-DDB1, sequence (Q96SW2 whole entry): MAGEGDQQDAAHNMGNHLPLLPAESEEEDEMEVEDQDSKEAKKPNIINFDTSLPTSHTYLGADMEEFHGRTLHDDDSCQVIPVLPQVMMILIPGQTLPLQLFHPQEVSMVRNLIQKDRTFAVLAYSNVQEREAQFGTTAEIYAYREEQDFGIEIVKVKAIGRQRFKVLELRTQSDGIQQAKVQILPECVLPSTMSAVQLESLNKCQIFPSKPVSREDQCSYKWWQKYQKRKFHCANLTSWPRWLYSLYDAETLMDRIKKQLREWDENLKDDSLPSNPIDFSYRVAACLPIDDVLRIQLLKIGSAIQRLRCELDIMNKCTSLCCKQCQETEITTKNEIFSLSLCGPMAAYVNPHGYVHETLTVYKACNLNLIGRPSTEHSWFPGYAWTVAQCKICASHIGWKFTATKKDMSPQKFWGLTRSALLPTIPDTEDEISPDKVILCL
CRBN-DDB1, sequence (Q16531 whole entry partner): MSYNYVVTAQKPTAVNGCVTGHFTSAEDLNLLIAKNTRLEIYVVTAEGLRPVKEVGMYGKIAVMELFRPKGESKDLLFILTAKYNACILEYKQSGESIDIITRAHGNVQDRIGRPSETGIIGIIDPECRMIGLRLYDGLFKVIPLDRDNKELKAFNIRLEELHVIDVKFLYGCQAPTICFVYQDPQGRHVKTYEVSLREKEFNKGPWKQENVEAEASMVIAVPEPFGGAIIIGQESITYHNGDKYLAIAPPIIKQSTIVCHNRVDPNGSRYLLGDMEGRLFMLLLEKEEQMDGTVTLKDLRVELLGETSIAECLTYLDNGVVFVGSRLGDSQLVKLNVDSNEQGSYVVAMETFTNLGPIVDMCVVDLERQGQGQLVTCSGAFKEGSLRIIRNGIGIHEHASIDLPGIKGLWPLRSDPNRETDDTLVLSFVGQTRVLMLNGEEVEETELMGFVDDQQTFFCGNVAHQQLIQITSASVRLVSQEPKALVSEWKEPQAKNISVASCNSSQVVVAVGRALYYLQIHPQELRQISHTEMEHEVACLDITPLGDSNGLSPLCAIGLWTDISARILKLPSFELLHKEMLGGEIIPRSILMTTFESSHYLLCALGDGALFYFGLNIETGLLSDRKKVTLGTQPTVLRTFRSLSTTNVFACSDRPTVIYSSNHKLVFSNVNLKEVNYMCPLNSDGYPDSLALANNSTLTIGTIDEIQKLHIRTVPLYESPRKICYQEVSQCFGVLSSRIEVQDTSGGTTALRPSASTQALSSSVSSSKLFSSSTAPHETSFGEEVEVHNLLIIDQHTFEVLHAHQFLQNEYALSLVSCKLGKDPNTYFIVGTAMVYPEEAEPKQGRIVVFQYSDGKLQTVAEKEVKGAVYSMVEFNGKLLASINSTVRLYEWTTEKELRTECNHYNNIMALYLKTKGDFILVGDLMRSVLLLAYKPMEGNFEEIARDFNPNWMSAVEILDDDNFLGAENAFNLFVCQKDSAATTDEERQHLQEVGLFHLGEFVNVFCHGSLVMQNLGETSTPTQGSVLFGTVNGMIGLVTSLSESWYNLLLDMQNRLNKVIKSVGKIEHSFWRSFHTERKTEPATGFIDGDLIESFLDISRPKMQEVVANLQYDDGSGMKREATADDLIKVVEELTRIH

Broadly, the Dmax is the greatest extent of degradation seen. The low end stands for shallow degradation, the high end for deep degradation. Usually Ki stands for a dissociation constant, usually derived from enzyme kinetics or from competition with a known ligand. Low values mean tighter binding, high ones weaker binding. On CDK2, `O=C1CCC(N2Cc3ccc(CNC(=O)OCc4ccc([C@H]5CCC[C@@H]5O)cc4)cc3C2=O)C(=O)N1` (stereo partly drawn) [Compound 19, 4-((1R, 2S)-2-hydroxycyclopentyl) benzyl ((2-(2,6-dioxopiperidin-3-yl)-3-oxoisoindolin-5-yl)methyl)carbamate] displayed a maximal degradation (Dmax) of 10 to 50%. The compound further registered an inhibition constant (Ki) at CRBN-DDB1 of 100 to 1000 nM.

At CDK2, `O=C1CCC(N2Cc3ccc(CNC(=O)OCc4cccc(C(F)(F)F)c4)cc3C2=O)C(=O)N1` (stereo not drawn) [Compound 31, [3-(trifluoromethyl)phenyl]methyl N-{[2-(2,6-dioxopiperidin-3-yl)-3-oxo-2,3-dihydro-1H-isoindol-5-yl]methyl}carbamate] registered a maximal degradation (Dmax) of 10 to 50%. Moreover, the Ki at CRBN-DDB1 is at most 100 nM.

On CDK2, `Cc1ccc(COC(=O)NCc2ccc3c(c2)C(=O)N(C2CCC(=O)NC2=O)C3)c(C)c1` (stereo not drawn) [Compound 30, (2,4-dimethylphenyl)methyl N-{[2-(2,6-dioxopiperidin-3-yl)-3-oxo-2,3-dihydro-1H-isoindol-5-yl]methyl}carbamate] came in with a Dmax of 10 to 50%. Further, the inhibitory constant (Ki) at CRBN-DDB1 fell in the range of 100 to 1000 nM.

For `CC(C)(C)c1cccc(COC(=O)NCc2ccc3c(c2)C(=O)N(C2CCC(=O)NC2=O)C3)c1` (stereo not drawn) [Compound 45, (3-tert-butylphenyl)methyl N-{[2-(2,6-dioxopiperidin-3-yl)-3-oxo-2,3-dihydro-1H-isoindol-5-yl]methyl}carbamate], the Dmax on CDK2 fell in the range of 10 to 50%. The compound also returned a Ki at CRBN-DDB1 of at most 100 nM.

`CSc1ccc(COC(=O)NCc2ccc3c(c2)C(=O)N(C2CCC(=O)NC2=O)C3)cc1Cl` (stereo not drawn) [Compound 49, [3-chloro-4-(methylsulfanyl)phenyl]methyl N-{[2-(2,6-dioxopiperidin-3-yl)-3-oxo-2,3-dihydro-1H-isoindol-5-yl]methyl}carbamate]: at CDK2, the Dmax was in the range of 10 to 50%. Further, the Ki at CRBN-DDB1 was at most 100 nM.

At CDK2, `O=C1CCC(N2Cc3ccc(CNC(=O)OCc4cncc(-c5ccccc5)c4)cc3C2=O)C(=O)N1` (stereo not drawn) [Compound 13, (5-phenylpyridin-3-yl)methyl ((2-(2,6-dioxopiperidin-3-yl)-3-oxoisoindolin-5-yl)methyl)carbamate] showed a Dmax of 10 to 50%. The compound also displayed a Ki on CRBN-DDB1 of at most 100 nM.

`COc1cc(COC(=O)NCc2ccc3c(c2)C(=O)N(C2CCC(=O)NC2=O)C3)ccc1F` (stereo not drawn) [Compound 44, (4-fluoro-3-methoxyphenyl)methyl N-{[2-(2,6-dioxopiperidin-3-yl)-3-oxo-2,3-dihydro-1H-isoindol-5-yl]methyl}carbamate] registered a Dmax at CDK2 of 10 to 50%. The compound further came in with an inhibitory constant (Ki) at CRBN-DDB1 of at most 100 nM.

On to `O=C1CCC(N2Cc3ccc(CNC(=O)OCCCc4ccccc4)cc3C2=O)C(=O)N1` (stereo not drawn) [Compound 23, 3-phenylpropyl N-{[2-(2,6-dioxopiperidin-3-yl)-3-oxo-2,3-dihydro-1H-isoindol-5-yl]methyl}carbamate], for which the Dmax at CDK2 lay in the range of 10 to 50%. This compound also yielded a Ki at CRBN-DDB1 of 100 to 1000 nM.

As for `COc1ccc2cc(COC(=O)NCc3ccc4c(c3)C(=O)N(C3CCC(=O)NC3=O)C4)ccc2c1` (stereo not drawn) [Compound 28, (6-methoxynaphthalen-2-yl)methyl N-{[2-(2,6-dioxopiperidin-3-yl)-3-oxo-2,3-dihydro-1H-isoindol-5-yl]methyl}carbamate], the Dmax on CDK2 was at most 10%. This compound also had a Ki at CRBN-DDB1 of 100 to 1000 nM.

For the compound `O=C1CCC(N2Cc3ccc(CNC(=O)OCc4ccc(OC5CCOCC5)cc4)cc3C2=O)C(=O)N1` (stereo not drawn) [Compound 3, 4-((tetrahydro-2H-pyran-4-yl)oxy)benzyl((2-(2,6-dioxopiperidin-3-yl)-3-oxoisoindolin-5-yl)methyl)carbamate], on CDK2, the Dmax is 10 to 50%. On CRBN-DDB1, this compound displayed a Ki of 100 to 1000 nM.

`CC(NC(=O)OCc1ccc(OC2CCOCC2)nc1)c1ccc2c(c1)C(=O)N(C1CCC(=O)NC1=O)C2` (stereo not drawn) [Compound 16, (6-((tetrahydro-2H-pyran-4-yl)oxy)pyridin-3-yl)methyl (1-(2-(2,6-dioxopiperidin-3-yl)-3-oxoisoindolin-5-yl)ethyl)carbamate] returned a Dmax on CDK2 of 10 to 50%. This compound also gave a Ki on CRBN-DDB1 of 100 to 1000 nM.

On CDK2, `O=C1CCC(N2Cc3ccc(CNC(=O)OCc4ccc(C5CCCO5)cc4)cc3C2=O)C(=O)N1` (stereo not drawn) [Compound 18] returned a Dmax of 10 to 50%. Also, the Ki on CRBN-DDB1 fell in the range of 100 to 1000 nM.

For the compound `COc1ccc(-c2cccc(COC(=O)NCc3ccc4c(c3)C(=O)N(C3CCC(=O)NC3=O)C4)c2)cc1` (stereo not drawn) [Compound 58, {4′-methoxy-[1,1′-biphenyl]-3-yl}methyl N-{[2-(2,6-dioxopiperidin-3-yl)-3-oxo-2,3-dihydro-1H-isoindol-5-yl]methyl}carbamate], at CDK2, the Dmax is 10 to 50%. At CRBN-DDB1, this compound displayed an inhibition constant (Ki) of at most 100 nM.

Turning to `Cc1ccc(COC(=O)NCc2ccc3c(c2)C(=O)N(C2CCC(=O)NC2=O)C3)cc1` (stereo not drawn) [Compound 29, (4-methylphenyl)methyl N-{[2-(2,6-dioxopiperidin-3-yl)-3-oxo-2,3-dihydro-1H-isoindol-5-yl]methyl}carbamate], the maximal degradation (Dmax) on CDK2 is at most 10%. In addition, on CRBN-DDB1, the Ki is at most 100 nM.

Consider `O=C1CCC(N2Cc3ccc(CNC(=O)OCc4cccc(-c5ccccc5)c4)cc3C2=O)C(=O)N1` (stereo not drawn) [Compound 6, [1,1′-biphenyl]-3-ylmethyl ((2-(2,6-dioxopiperidin-3-yl)-3-oxoisoindolin-5-yl)methyl)carbamate], for which the Dmax on CDK2 fell in the range of 10 to 50%. Also, the Ki at CRBN-DDB1 is at most 100 nM.

`CC(C)COc1ccc(COC(=O)NCc2ccc3c(c2)C(=O)N(C2CCC(=O)NC2=O)C3)cc1` (stereo not drawn) [Compound 46, [4-(2-methylpropoxy)phenyl]methyl N-{[2-(2,6-dioxopiperidin-3-yl)-3-oxo-2,3-dihydro-1H-isoindol-5-yl]methyl}carbamate]: on CDK2, the Dmax was in the range of 10 to 50%. In addition, the inhibitory constant (Ki) at CRBN-DDB1 is 100 to 1000 nM.

`CCOc1ccc(COC(=O)NCc2ccc3c(c2)C(=O)N(C2CCC(=O)NC2=O)C3)c(C)c1` (stereo not drawn) [Compound 41, (4-ethoxy-2-methylphenyl)methyl N-{[2-(2,6-dioxopiperidin-3-yl)-3-oxo-2,3-dihydro-1H-isoindol-5-yl]methyl}carbamate] showed a Dmax at CDK2 of 10 to 50%. In addition, the Ki at CRBN-DDB1 fell in the range of 100 to 1000 nM.

For the compound `O=C1CCC(N2Cc3ccc(CNc4nnc(-c5ccc(OC(F)(F)F)cc5)o4)c(O)c3C2=O)C(=O)N1` (stereo not drawn) [Compound 75, 3-(7-hydroxy-1-oxo-6-(((5-(4-(trifluoromethoxy)phenyl)-1,3,4-oxadiazol-2-yl)amino)methyl)isoindolin-2-yl)piperidine-2,6-dione], the Dmax on CDK2 fell in the range of 10 to 50%. For the same compound, the Ki on CRBN-DDB1 was in the range of 100 to 1000 nM.

As to `O=C(CCc1cccc(-c2ccc(F)cc2)c1)NCc1ccc2c(c1)C(=O)N(C1CCC(=O)NC1=O)C2` (stereo not drawn) [Compound 21, N-((2-(2,6-dioxopiperidin-3-yl)-3-oxoisoindolin-5-yl)methyl)-3-(4′-fluoro-[1,1′-biphenyl]-3-yl)propanamide], the maximal degradation (Dmax) on CDK2 was at most 10%. This compound had an inhibition constant (Ki) on CRBN-DDB1 of at most 100 nM.

`O=C1CCC(N2Cc3ccc(CNC(=O)OCc4ccc(C(F)(F)F)cc4)cc3C2=O)C(=O)N1` (stereo not drawn) [Compound 59, [4-(trifluoromethyl)phenyl]methyl N-{[2-(2,6-dioxopiperidin-3-yl)-3-oxo-2,3-dihydro-1H-isoindol-5-yl]methyl}carbamate] had a maximal degradation (Dmax) on CDK2 of 10 to 50%. Moreover, the Ki at CRBN-DDB1 lay in the range of 100 to 1000 nM.

In the case of `COc1ccc(COC(=O)NCc2ccc3c(c2)C(=O)N(C2CCC(=O)NC2=O)C3)cc1` (stereo not drawn) [Compound 25, (4-methoxyphenyl)methyl N-{[2-(2,6-dioxopiperidin-3-yl)-3-oxo-2,3-dihydro-1H-isoindol-5-yl]methyl}carbamate], the maximal degradation (Dmax) on CDK2 was in the range of 10 to 50%. Further, the Ki on CRBN-DDB1 was at most 100 nM.
